Results taken from ChEMBL document CHEMBL3751791, “Alkenes with antioxidative activities from Murraya koenigii (L.) Spreng” (Bioorg Med Chem Lett, 2016).

Assay: Antioxidative activity of the compound assessed as DPPH radical scavenging activity
Type: physicochemical

Row | SMILES | IC50 [µM]
1 | C=C[C@](C)(O)CC/C=C(C)/C=C/[C@@H](O[C@H]1O[C@@H](CO)[C@H](O)[C@@H](O)[C@@H]1O)C(C)(C)O | 38.4
2 | CC/C=C/C[C@H](O)/C=C/[C@H](O)[C@H](O)[C@H](O)CCCCC[C@H](C)O | 25.4
3 | O=C(/C=C/c1ccc(O)c(O)c1)O[C@@H]1C[C@](O)(C(=O)O)C[C@@H](O)[C@H]1O [CHLOROGENIC ACID] | 56.4

Further compounds by falling IC50, results first:

Row | IC50 [µM] | SMILES
4 | 40.2 | C=C[C@](C)(CC/C=C(\CO)CC/C=C(\C)C[C@@H](O)/C=C(\C)C(=O)O)O[C@H]1O[C@@H](CO)[C@H](O)[C@@H](O)[C@@H]1O
5 | 23.5 | C=C[C@](C)(O)C[C@@H](O)/C=C(\C)[C@@H](O)CC=C(C)C
